# In patent US9732094B2, “Arylquinazolines” (Merck Patent GmbH, priority 2013, dated 2017):
# Like-named read-outs stand apart in the source and are kept apart here.
# Assays:
# DNA-PK = DNA-PK (Homo sapiens (Human), UniProt P78527); assay: DNA-PK assay (biochemical), flashplate 33P-ATP kinase assay; details: biochemical DNA-PK assay
# How it was run: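 Radiometric kinase reaction in streptavidin-coated flashplates, stopped with 200 mM EDTA, then 30 min room-temperature incubation and saline washes.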
# [1] = target: DNA-PK phosphorylation at serine 2056 (Homo sapiens (Human), UniProt P78527); assay: DNA-PK phosphorylation at serine 2056 (cellular), bleomycin-treated HCT116 cells, ELISA; format: cell-based; details: cellular DNA-PK phosphorylation at serine 2056, HCT116; read-out: IC50 pDNA-PK
# How it was run: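 Chemiluminescent ELISA read-out; phospho-specific signal normalised to total DNA-PKcs. Cells (HCT116) exposed 6 h to test compound plus 10 μM bleomycin to induce double-strand breaks; DMSO control served as blank.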
# Kv11.1 (hERG) = Kv11.1 (hERG) (Homo sapiens (Human), UniProt Q12809); assay: Kv11.1 (hERG) ion channel activity (patch clamp assay), HEK293 cells transfected with hERG gene; details: hERG patch clamp assay (cells without asterisk)
# Chain of Kv11.1 (hERG) (Q12809 whole entry): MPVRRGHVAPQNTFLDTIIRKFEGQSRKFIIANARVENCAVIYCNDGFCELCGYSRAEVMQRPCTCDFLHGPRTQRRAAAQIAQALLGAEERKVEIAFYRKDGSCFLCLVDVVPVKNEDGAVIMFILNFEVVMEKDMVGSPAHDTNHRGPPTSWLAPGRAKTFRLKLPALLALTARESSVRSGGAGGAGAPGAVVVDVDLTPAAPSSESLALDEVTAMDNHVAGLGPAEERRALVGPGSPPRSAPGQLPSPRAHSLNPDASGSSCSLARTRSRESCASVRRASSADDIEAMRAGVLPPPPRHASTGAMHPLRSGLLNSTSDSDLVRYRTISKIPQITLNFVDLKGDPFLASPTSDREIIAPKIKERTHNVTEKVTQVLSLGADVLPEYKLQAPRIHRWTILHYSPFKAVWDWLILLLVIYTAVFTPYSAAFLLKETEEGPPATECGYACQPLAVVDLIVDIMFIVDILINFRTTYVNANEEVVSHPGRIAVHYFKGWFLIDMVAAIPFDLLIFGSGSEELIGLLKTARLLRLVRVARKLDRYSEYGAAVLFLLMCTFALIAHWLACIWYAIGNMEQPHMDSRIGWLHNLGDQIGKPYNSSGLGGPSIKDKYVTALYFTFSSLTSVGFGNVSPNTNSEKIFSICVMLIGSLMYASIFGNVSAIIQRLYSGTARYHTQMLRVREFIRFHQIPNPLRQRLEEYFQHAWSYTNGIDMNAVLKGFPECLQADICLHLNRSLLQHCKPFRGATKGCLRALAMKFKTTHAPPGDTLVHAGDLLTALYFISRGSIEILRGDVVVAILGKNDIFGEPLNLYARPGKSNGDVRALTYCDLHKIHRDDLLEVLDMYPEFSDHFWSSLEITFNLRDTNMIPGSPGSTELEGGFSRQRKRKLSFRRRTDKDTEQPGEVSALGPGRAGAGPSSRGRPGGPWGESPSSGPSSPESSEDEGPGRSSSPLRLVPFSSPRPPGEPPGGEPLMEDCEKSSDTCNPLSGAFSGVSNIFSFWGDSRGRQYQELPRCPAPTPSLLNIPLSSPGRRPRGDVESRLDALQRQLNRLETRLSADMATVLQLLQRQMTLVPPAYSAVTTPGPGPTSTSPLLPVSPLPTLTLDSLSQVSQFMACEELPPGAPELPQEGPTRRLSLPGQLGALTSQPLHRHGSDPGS
IC50 (DNA-PK),IC50 [1],Compound,Ki (Kv11.1 (hERG); read-out: Ki [Kv1.11 hERG]),Ki (Kv11.1 (hERG); Ki [Kv1.11 hERG])
7 to 30 nM,10000 to 30000 nM,"COC(c1ccc(F)c(-c2ncnc3cc(N4CCOCC4)ccc23)c1)c1nccnc1C (stereo not drawn) [Example 353, 4-{2-Fluoro-5-[methoxy-(3-methyl-pyrazin-2-yl)methyl]-phenyl}-7-morpholin-4-ylquinazoline]",> 25000 nM,
< 3 nM,< 500 nM,"Cc1cnc(C(O)c2ccc(F)c(-c3ncnc4cc(N5CCOCC5)ccc34)c2)c(C)n1 (stereo not drawn) [Example 354, (3,5-Dimethyl-pyrazin-2-yl)-[4-fluoro-3-(7-morpholin-4-yl-quinazolin-4-yl)-phenyl]methanol]",> 25000 nM,
3 to 7 nM,500 to 5000 nM,"Cc1cnc(C(O)c2cc(-c3ncnc4cc(N5CCOCC5)ccc34)c(F)cc2F)c(C)n1 (stereo not drawn) [Example 355, [2,4-Difluoro-5-(7-morpholin-4-yl-quinazolin-4-yl)-phenyl]-(3,5-dimethyl-pyrazin-2-yl)methanol]",,15000 to 25000 nM
< 3 nM,< 500 nM,"OC(c1ccc(F)c(-c2ncnc3cc(N4CCOCC4)ccc23)c1)c1nccn2cccc12 (stereo not drawn) [Example 356, [4-Fluoro-3-(7-morpholin-4-yl-quinazolin-4-yl)-phenyl]pyrrolo[1,2-a]-pyrazin-1-ylmethanol]",< 10000 nM,
< 3 nM,< 500 nM,"OC(c1cc(-c2ncnc3cc(N4CCOCC4)ccc23)c(F)cc1F)c1nccn2cccc12 (stereo not drawn) [Example 358, [2,4-Difluoro-5-(7-morpholin-4-yl-quinazolin-4-yl)-phenyl]pyrrolo[1,2-a]-pyrazin-1-ylmethanol]",,10000 to 15000 nM
< 3 nM,< 500 nM,"OC(c1cc(-c2ncnc3cc(N4CCOCC4)ccc23)c(F)cc1Cl)c1nccn2cccc12 (stereo not drawn) [Example 359, [2-Chloro-4-fluoro-5-(7-morpholin-4-yl-quinazolin-4-yl)-phenyl]pyrrolo[1,2-a]-pyrazin-1-ylmethanol]",< 10000 nM,
3 to 7 nM,500 to 5000 nM,"Cn1c(C(O)c2ccc(F)c(-c3ncnc4cc(N5CCOCC5)ccc34)c2)nccc1=O (stereo not drawn) [Example 360, 2-{[4-Fluoro-3-(7-morpholin-4-yl-quinazolin-4-yl)-phenyl]hydroxy-methyl}-3-methyl-3H-pyrimidin-4-one]",> 25000 nM,
3 to 7 nM,500 to 5000 nM,"OC(c1cc(-c2ncnc3cc(N4CCOCC4)ccc23)ccc1Cl)c1nccn2cccc12 (stereo not drawn) [Example 361, (2-Chloro-5-(7-morpholin-4-yl-quinazolin-4-yl)-phenyl]pyrrolo[1,2-a]-pyrazin-1-ylmethanol]",< 10000 nM,
3 to 7 nM,500 to 5000 nM,"OC(c1cc(-c2ncnc3cc(N4CCOCC4)ccc23)ccc1Cl)c1ncnn2cccc12 (stereo not drawn) [Example 362, [2-Chloro-5-(7-morpholin-4-yl-quinazolin-4-yl)-phenyl]pyrrolo[2,1-f]-[1,2,4]triazin-4-yl-methanol]",< 10000 nM,
3 to 7 nM,500 to 5000 nM,"Cn1c(C(O)c2cc(-c3ncnc4cc(N5CCOCC5)ccc34)ccc2F)cccc1=O (stereo not drawn) [Example 365, 6-{[2-Fluoro-5-(7-morpholin-4-yl-quinazolin-4-yl)-phenyl]hydroxy-methyl}-1-methyl-1H-pyridin-2-one]",> 25000 nM,
7 to 30 nM,5000 to 10000 nM,"Cn1c(C(O)c2cc(-c3ncnc4cc(N5CCOCC5)ccc34)ccc2F)cccc1=O (stereo not drawn) [Example 366, 6-{[2-Fluoro-5-(7-morpholin-4-yl-quinazolin-4-yl)-phenyl]hydroxy-methyl}-1-methyl-1H-pyridin-2-one]",> 25000 nM,
< 3 nM,500 to 5000 nM,"O=c1ccc(C(O)c2ccc(F)c(-c3ncnc4cc(N5CCOCC5)ccc34)c2)n[nH]1 (stereo not drawn) [Example 367, 6-{[4-Fluoro-3-(7-morpholin-4-yl-quinazolin-4-yl)-phenyl]hydroxy-methyl}-2H-pyridazin-3-one]",> 25000 nM,
7 to 30 nM,5000 to 10000 nM,"Cn1c(C(O)c2cc(-c3ncnc4cc(N5CCOCC5)ccc34)c(F)cc2Cl)nccc1=O (stereo not drawn) [Example 368, 2-{[2-Chloro-4-fluoro-5-(7-morpholin-4-yl-quinazolin-4-yl)-phenyl]hydroxy-methyl}-3-methyl-3H-pyrimidin-4-one]",> 25000 nM,
7 to 30 nM,5000 to 10000 nM,"OC(c1cc(-c2ncnc3cc(N4CCOCC4)ccc23)ccc1Cl)c1nccn2ccnc12 (stereo not drawn) [Example 369, [2-Chloro-5-(7-morpholin-4-yl-quinazolin-4-yl)-phenyl]imidazo-[1,2-a]pyrazin-8-yl-methanol]",,15000 to 25000 nM
7 to 30 nM,500 to 5000 nM,"Cn1cnc2c(C(O)c3cc(-c4ncnc5cc(N6CCOCC6)ccc45)ccc3F)ncnc21 (stereo not drawn) [Example 370, [2-Fluoro-5-(7-morpholin-4-yl-quinazolin-4-yl)-phenyl]-(9-methyl-9H-purin-6-yl)-methanol]",> 25000 nM,
7 to 30 nM,500 to 5000 nM,"Cn1cnc2c(C(O)c3cc(-c4ncnc5cc(N6CCOCC6)ccc45)ccc3Cl)ncnc21 (stereo not drawn) [Example 371, [2-Chloro-5-(7-morpholin-4-yl-quinazolin-4-yl)-phenyl]-(9-methyl-9H-purin-6-yl)-methanol]",,10000 to 15000 nM
7 to 30 nM,500 to 5000 nM,"OC(c1cc(-c2ncnc3cc(N4CCOCC4)ccc23)ccc1F)c1nccn2ccnc12 (stereo not drawn) [Example 372, [2-Fluoro-5-(7-morpholin-4-yl-quinazolin-4-yl)-phenyl]imidazo-[1,2-a]pyrazin-8-yl-methanol]",> 25000 nM,
3 to 7 nM,500 to 5000 nM,"OC(c1cc(-c2ncnc3cc(N4CCOCC4)ccc23)ccc1F)c1cccc2nncn12 (stereo not drawn) [Example 373, [2-Fluoro-5-(7-morpholin-4-yl-quinazolin-4-yl)-phenyl]-[1,2,4]-triazolo[4,3-a]pyridin-5-ylmethanol]",,15000 to 25000 nM
< 3 nM,500 to 5000 nM,"OC(c1cc(-c2ncnc3cc(N4CCOCC4)ccc23)ccc1F)c1ncnc2ccoc12 (stereo not drawn) [Example 374, [2-Fluoro-5-(7-morpholin-4-yl-quinazolin-4-yl)-phenyl]furo[3,2-d}-pyrimidin-4-yl-methanol]",,15000 to 25000 nM
< 3 nM,500 to 5000 nM,"Cn1c(C(O)c2ccc(F)c(-c3ncnc4cc(N5CCOCC5)ccc34)c2)cccc1=O (stereo not drawn) [Example 375, 6-{[4-Fluoro-3-(7-morpholin-4-yl-quinazolin-4-yl)-phenyl]hydroxy-methyl}-1-methyl-1H-pyridin-2-one]",> 25000 nM,
< 3 nM,< 500 nM,"Cn1c(C(O)c2ccc(F)c(-c3ncnc4cc(N5CCOCC5)ccc34)c2)cccc1=O (stereo not drawn) [Example 376, 6-{[4-Fluoro-3-(7-morpholin-4-yl-quinazolin-4-yl)-phenyl]hydroxy-methyl}-1-methyl-1H-pyridin-2-one]",> 25000 nM,
3 to 7 nM,500 to 5000 nM,"Cc1cncnc1C(C(N)=O)c1cc(-c2ncnc3cc(N4CCOCC4)ccc23)ccc1Cl (stereo not drawn) [Example 377, 2-[2-Chloro-5-(7-morpholin-4-yl-quinazolin-4-yl)-phenyl]-2-(5-methyl-pyrimidin-4-yl)-acetamide]",,15000 to 25000 nM
3 to 7 nM,500 to 5000 nM,"Cc1cncnc1C(C(N)=O)c1cc(-c2ncnc3cc(N4CCOCC4)ccc23)ccc1Cl (stereo not drawn) [Example 378, 2-[2-Chloro-5-(7-morpholin-4-yl-quinazolin-4-yl)-phenyl]-2-(5-methyl-pyrimidin-4-yl)-acetamide]",> 25000 nM,
3 to 7 nM,500 to 5000 nM,"OC(c1cc(-c2ncnc3cc(N4CCOCC4)ccc23)c(F)cc1F)c1nnc2ccccn12 (stereo not drawn) [Example 379, [2,4-Difluoro-5-(7-morpholin-4-yl-quinazolin-4-yl)-phenyl]-[1,2.4]-triazolo[4,3-a]pyridin-3-ylmethanol]",> 25000 nM,
3 to 7 nM,500 to 5000 nM,"Cn1c(C(O)c2cc(-c3ncnc4cc(N5CCOCC5)ccc34)c(F)cc2F)cccc1=O (stereo not drawn) [Example 380, 6-{[2,4-Difluoro-5-(7-morpholin-4-yl-quinazolin-4-yl)-phenyl]hydroxy-methyl}-1-methyl-1H-pyridin-2-one]",> 25000 nM,
< 3 nM,500 to 5000 nM,"Cn1c(C(O)c2cc(-c3ncnc4cc(N5CCOCC5)ccc34)c(F)cc2F)cccc1=O (stereo not drawn) [Example 381, 6-{[2,4-Difluoro-5-(7-morpholin-4-yl-quinazolin-4-yl)-phenyl]hydroxy-methyl}-1-methyl-1H-pyridin-2-one]",> 25000 nM,
7 to 30 nM,500 to 5000 nM,"Cn1c(C(O)c2cc(-c3ncnc4cc(N5CCOCC5)ccc34)c(F)cc2Cl)cccc1=O (stereo not drawn) [Example 382, 6-{[2-Chloro-4-fluoro-5-(7-morpholin-4-yl-quinazolin-4-yl)-phenyl]hydroxy-melhyl}-1-methyl-1H-pyridin-2-one]",,15000 to 25000 nM
< 3 nM,< 500 nM,"Cn1c(C(O)c2cc(-c3ncnc4cc(N5CCOCC5)ccc34)c(F)cc2Cl)cccc1=O (stereo not drawn) [Example 383, 6-{[2-Chloro-4-fluoro-5-(7-morpholin-4-yl-quinazolin-4-yl)-phenyl]hydroxy-methyl}-1-methyl-1H-pyridin-2-one]",> 25000 nM,

Compound,IC50 (DNA-PK),IC50 [1],Ki (Kv11.1 (hERG); read-out: Ki [Kv1.11 hERG]),Ki (Kv11.1 (hERG); Ki [Kv1.11 hERG])
"COc1ccc(C(O)c2cc(-c3ncnc4cc(N5CCOCC5)ccc34)ccc2F)nn1 (stereo not drawn) [Example 357, [2-Fluoro-5-(7-morpholin-4-yl-quinazolin-4-yl)-phenyl]-(6-methoxy-pyridazin-3-yl)-methanol]",3 to 7 nM,500 to 5000 nM,> 25000 nM,
